The supplement of paper PMC4977894
± gives the standard deviation of the averaged measurements.

Columns and labels:
[1] = system: Homo sapiens (human subject panel, olfactory perception); assay: perceived odor intensity rating (rating 0-100); higher = stronger perceived smell
Method: (§1)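 Human olfactory psychophysics. 55 healthy subjects (after excluding 6 low performers) sniffed 1 mL of each odorant diluted in paraffin oil (vials, two dilutions per molecule, 20 molecules presented twice). Each subject rated intensity, pleasantness and familiarity on a 0-100 slider, starting at 50 and required to move. Ratings were given only when the subject reported detecting a smell; per-subject ratings are averaged over subjects.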

[2] = system: Homo sapiens (human subject panel, olfactory perception); assay: perceived odor familiarity rating (rating 0-100); higher = more familiar
Method: as §1

[3] = system: Homo sapiens (human subject panel, olfactory perception); assay: perceived odor pleasantness rating (rating 0-100); higher = more pleasant
Method: as §1

[4] = odor dilution in paraffin oil: 1/1,000
[5] = odor dilution in paraffin oil: 1/100,000
[6] = odor dilution in paraffin oil: 1/10,000,000
[7] = odor dilution in paraffin oil: 1/10

Structure (SMILES) | perceived odor intensity rating [1, 4] | perceived odor intensity rating [1, 5] | perceived odor familiarity rating [2, 4] | perceived odor familiarity rating [2, 5] | perceived odor pleasantness rating [3, 4] | perceived odor pleasantness rating [3, 5] | perceived odor intensity rating [1, 6] | perceived odor familiarity rating [2, 6] | perceived odor pleasantness rating [3, 6] | perceived odor intensity rating [1, 7] | perceived odor familiarity rating [2, 7] | perceived odor pleasantness rating [3, 7]
CCC(=O)OCCCc1ccccc1 [3-Phenylpropyl propionate] | 62.9 ± 26 | 28.4 ± 34 | 49.1 ± 28 | 38.6 ± 32 | 36.4 ± 28 | 49.8 ± 27 | – | – | – | – | – | –
CCCC(O)CC (configuration not stated) [3-hexanol (replicate)] | 68.9 ± 28 | 30.2 ± 30 | 50.5 ± 34 | 34.2 ± 26 | 32.3 ± 22 | 46.6 ± 22 | – | – | – | – | – | –
CCCC(O)CC (configuration not stated) [3-hexanol] | 71.3 ± 28 | 29.7 ± 30 | 43.1 ± 31 | 28.1 ± 23 | 35.1 ± 26 | 49.1 ± 24 | – | – | – | – | – | –
CCCCCC(=O)CC [3-octanone] | 69.7 ± 25 | 26 ± 27 | 56.4 ± 28 | 35.9 ± 30 | 50.9 ± 31 | 53.3 ± 23 | – | – | – | – | – | –
CCC(O)CC [3-pentanol] | 76.4 ± 18 | 39.4 ± 35 | 58.3 ± 32 | 44 ± 33 | 34 ± 26 | 33.4 ± 25 | – | – | – | – | – | –
O=C1CCSC1 [4,5-Dihydro-3(2H)-thiophenone] | 85.8 ± 20 | 37 ± 34 | 52.9 ± 34 | 30.8 ± 34 | 21.4 ± 26 | 33.2 ± 22 | – | – | – | – | – | –
CC1=C(O)C(=O)OC1C (configuration not stated) [4,5-Dimethyl-3-hydroxy-2,5-dihydrofuran-2-one] | – | 72.6 ± 21 | – | 64.4 ± 25 | – | 59.5 ± 29 | 41.8 ± 30 | 42.7 ± 32 | 46.1 ± 26 | – | – | –
CC(=O)CCc1ccc(O)cc1 [4-(4-Hydroxyphenyl)-2-butanone] | 46.3 ± 30 | – | 46.1 ± 28 | – | 50.6 ± 24 | – | – | – | – | 50.2 ± 29 | 40.1 ± 29 | 49.6 ± 27
C=CCc1ccc(OC)cc1 [4-Allylanisole] | 60.8 ± 26 | 22.3 ± 29 | 64.2 ± 28 | 28.7 ± 27 | 60.8 ± 24 | 54.5 ± 24 | – | – | – | – | – | –
CCOc1ccc(C=O)cc1 [4-Ethoxybenzaldehyde] | 65.2 ± 25 | 34.2 ± 28 | 58.5 ± 30 | 47.2 ± 31 | 67.4 ± 26 | 66.4 ± 24 | – | – | – | – | – | –
CCc1ccc(O)c(OC)c1 [4-Ethylguaiacol] | 78 ± 17 | 69.4 ± 23 | 57.6 ± 32 | 52.1 ± 32 | 41.7 ± 27 | 43.8 ± 24 | – | – | – | – | – | –
CCCC(=O)CCC [4-Heptanone] | 69.3 ± 24 | 34.7 ± 31 | 55.4 ± 27 | 41.1 ± 29 | 49.3 ± 23 | 51.6 ± 24 | – | – | – | – | – | –
O=Cc1ccc(O)cc1 [4-Hydroxybenzaldehyde] | 37.6 ± 27 | – | 39.1 ± 31 | – | 51.8 ± 23 | – | – | – | – | 51.6 ± 29 | 39.5 ± 25 | 49.2 ± 24
O=C1CCCO1 [4-Hydroxybutanoic acid lactone] | 47 ± 34 | 19.9 ± 24 | 44.6 ± 31 | 28.2 ± 30 | 28.9 ± 19 | 46.1 ± 25 | – | – | – | – | – | –
CC(C)c1ccc(CO)cc1 [4-Isopropylbenzyl alcohol] | 31.9 ± 32 | – | 33.1 ± 29 | – | 40.4 ± 25 | – | – | – | – | 71.6 ± 22 | 46.4 ± 31 | 31.8 ± 23
CC(=O)OCCc1scnc1C [4-Methyl-5-thiazoleethanol acetate] | 66.3 ± 26 | 38 ± 30 | 53.8 ± 31 | 45.9 ± 32 | 34.4 ± 25 | 41.9 ± 24 | – | – | – | – | – | –
Cc1ncsc1CCO [4-Methyl-5-thiazoleethanol] | 73.1 ± 20 | 48.6 ± 29 | 56.7 ± 32 | 39.9 ± 28 | 29.6 ± 25 | 37.8 ± 24 | – | – | – | – | – | –
